# Assay results as given in patent publication US11213494B2 (priority 2016, dated 2022).
# B1: BDNF: exogenous brain-derived neurotrophic factor, secreted protein, ligand of TrkB (protein, UniProt P23560 19-247, looked up)
# Neurotrophic factor BDNF …: APMKEANIRGQGGLAYPGVRTHGTLESVNGPKAGSRGLTSLADTFEHVIEELLDEDQKVRPNEENNKDADLYTSRVMLSSQVPLEPPLLFLLEEYKNYLDAANMSMRVRRHSDPARRGELSVCDSISEWVTAADKKTAVDMSGGTVTVLEKVPVSKGQLKQYFYETKCNPMGYTKEGCRGIDKRHWNSQCRTTQSYVRALTMDSKKRIGWRFIRIDTSCVCTLTIKRGR
# What was measured:
# AMPA-receptors = experiment: Whole-cell patch-clamp recordings of nTS second-order neurons in brainstem slices; format: cell-based, mice; conditions: 10 μM in the superfusate
# Description: Horizontal brainstem slices were prepared from 3- and 5- to 7-week-old Mecp2 Null and Wt male mice. Animals were deeply anesthetized by inhalation of isoflurane and then decapitated. Brains were removed from the skull and placed in low Ca2+, ice-cold artificial CSF (ACSF) containing the following (in mM): 125 NaCl, 3 KCl, 1.2 NaH2PO4, 1 CaCl2, 1.2 MgSO4, 2 MgCl2, 25 NaHCO3, 10 D-glucose, and 0.4 L-ascorbic acid, equilibrated to pH 7.4 with 95% O2/5% CO2, for 2-5 min. […]
# Slices were placed into the recording chamber, held in place with nylon-wired grid and superfused with recording ACSF at 30-32° C. at a flow rate of 4-5 ml/min. […] Evoked, spontaneous and miniature EPSCs (eEPSCs, sPSCs, mEPSCs) were recorded from cells meeting this criterion in the whole-cell voltage-clamp configuration at a holding potential of −60 mV. […] To compare intrinsic neuronal excitability between genotypes, action-potential properties and firing frequency in response to current injection (50 pA increments) were recorded in nComm neurons as well. […]
# Spontaneous and evoked postsynaptic currents were analyzed with Clampfit and Microsoft Excel. In the analysis of eEPSCs, 20 sweeps were averaged with Clampfit and the resulting eEPSC amplitudes were measured and compared between genotypes at different stimulation intensities. […]
# [1] = Body weight and tolerability during LM22A-4 treatment; format: in vivo, mice
# Description: (§1) Respiratory patterns were analyzed at 8, 10, and 12 weeks after birth in unrestrained mice using whole-body plethysmography as described previously. Measurements were taken from quiet breathing periods of at least 5 min total duration, and apneas were defined as pauses in breathing greater than two times the average breath duration calculated for each animal. LM22A-4 treatment. Wt and Het littermates were divided into 4 groups: Wt vehicle-treated (100 μl of 0.9% NaCl, i.p., b.i.d.), Wt drug treated (50 mg/kg LM22A-4 in 0.9% NaCl, i.p., b.i.d.), Het vehicle-treated (100 μl of 0.9% NaCl, i.p., b.i.d.), and Het drug-treated (50 mg/kg LM22A-4 in 0.9% NaCl, i.p., b.i.d.). Each mouse was treated from 8 to 13 weeks of age. Whole-body plethysmography was performed during week 12 and animals were subsequently killed and tissues harvested for TrkB Western blots and BDNF ELISA during week 13.
# in vivo = experiment: in vivo; parameters: species or system mice; conditions: Mecp2^tm1.1Jae heterozygous (Het), mouse, ip, 50 mg/kg, brain tissue concentration (corrected for blood contamination)
# Description: The brain concentration of LM22A-4 (custom synthesized by Ricerca Biosciences, LLC) was evaluated in Het mice 1 h after a 50 mg/kg intraperitoneal dose using reverse-phase liquid chromatography with triple-quadrupole tandem mass spectrometric (LC-MS/MS) detection. […] Brainstem and forebrain samples were homogenized with a Virsonic 100 ultrasonic homogenizer and prepared for analysis using acetonitrile precipitation by combining one volume of sample with three volumes of acetonitrile. Samples were centrifuged and the resulting supernatant was sampled for analysis using a CTC Leap PAL autosampler (Leap Technologies) and two PerkinElmer series 200 micro pumps. Chromatography was performed at ambient temperature using a 50×2.0 mm inner diameter, 4 μm Synergi Polar-RP analytical column (Phenomenex). The aqueous mobile phase (A) was 4 mM ammonium formate, pH 3.5 and the organic mobile phase (B) was 10:90 (v/v) […] ammonium formate, pH 3.5/acetonitrile. The analyte was eluted with a gradient which changed linearly from 0 to 100% B in 3 min at a flow rate of 300 μl/min. The total run time was 4.5 min and the injection volume was 10 μl. The analyte was detected on a Sciex API 3000 triple-quadrupole mass spectrometer equipped with a TurbolonSpray interface in the positive electrospray ionization mode (Applied Biosystems/MDS). […]
# Mecp2 Het mice = format: in vivo; conditions: 50 mg/kg i.p. twice daily for 4 weeks
# Description: as §1
# Comparison of respiratory parameters between Wt and Het animals in the initial phenotyping experiments were performed using unpaired Student's t test. Comparisons among Wt vehicle-treated, Wt drug-treated, Het vehicle-treated, and Het drug-treated groups in the LM22A-4 trials, including plethysmography and Western blots were performed using one-way ANOVA with post hoc Least Significant Difference test (LSD) for intergroup comparisons. Results were considered significant if the p-value was <0.05. Data are presented as the mean±SEM.
# TrkB [2] = experiment: Synaptic hyperexcitability in brainstem respiratory and autonomic circuits and apneic breathing in RTT mice; format: in vivo; conditions: for synaptic hyperexcitability in brainstem respiratory and autonomic circuits: acute
# TrkB [3] = experiment: TrkB, AKT and ERK phosphorylation assays (Western blot) in pons and medulla; format: in vivo, mice; conditions: 50 mg/kg i.p. b.i.d. for 5 weeks
# Description: The ratios of (1) phospho-TrkB^Y817/TrkB (full-length), phospho-ERK/ERK and phospho-AKT/AKT, (2) phospho-TrkB^Y817/actin, phospho-ERK/actin and phospho-AKT/actin, (3) TrkB (full-length)/actin, ERK/actin and AKT/actin and (4) TrkB (truncated)/actin were measured by Western blot using the ECL Chemiluminescence System (GE Healthcare). Site-specific rabbit monoclonal antiphospho-TrkB^Y817 antibody was obtained from Epitomics and rabbit polyclonal TrkB antibody was obtained from Millipore. Rabbit polyclonal ERK and AKT, mouse monoclonal phospho-ERK and phospho-AKT antibodies were obtained from Cell Signaling Technology. Tissues were homogenized in a lysis buffer (containing, in mM: 20 Tris, pH 8.0, 137 NaCl, 1% Igepal CA-630, 10% glycerol, 1 PMSF, 10 μg/ml aprotinin, 1 μg/ml leupeptin, 500 μM orthovanadate). Lysates were centrifuged at 14,000×g for 10 min, then the supernatant was collected and protein concentration was determined using the BCA Protein Assay Reagent (Pierce).
# as §1
Molecule,effect on sPSCs (AMPA-receptors),reduction of eEPSC amplitudes (AMPA-receptors; n=10) [%],"effect on body weight ([1]; Wt or Het mice, 50 mg/kg i.p. b.i.d. throughout the treatment period)",tolerability of daily treatment ([1]; heterozygous female Mecp2 mutant mice),concentration at 1 h (in vivo; brainstem) [nM],concentration at 1 h (in vivo; forebrain) [nM],percentage of apneic animals (Mecp2 Het mice),Te (expiratory time) compared with Wt (Mecp2 Het mice; 12-week-old Het mice),Ttot (total breath duration) compared with Wt (Mecp2 Het mice; 12-week-old Het mice),breathing frequency compared with Wt (Mecp2 Het mice; 12-week-old Het mice),"respiratory function, drug- vs vehicle-treated Wt mice (Mecp2 Het mice; Wt mice)",apneic breathing in vivo (TrkB [2]),synaptic hyperexcitability in brainstem respiratory and autonomic circuits (TrkB [2]),"deficits in TrkB phosphorylation (p-TrkBY817/TrkB, p-TrkBY817/actin) (TrkB [3]; pons and medulla, 13-week-old Het mice)","decreases in p-AKT/AKT and p-AKT/actin (TrkB [3]; pons, Het mice)","effect of drug treatment on level of p-ERK/ERK (TrkB [3]; pons, Wt and Het mice)","levels of p-TrkB/TrkB and p-TrkB/actin vs wild-type controls (TrkB [3]; pons, drug-treated Het mice)"
"N#Cc1cc2c(cc1[N+](=O)[O-])=NC(=O)C(=O)N=2 [6-cyano-7-nitroquinoxaline-2,3-dione]",completely abolished,92.2±1.4,,,,,,,,,,,,,,,
"O=C(NCCO)c1cc(C(=O)NCCO)cc(C(=O)NCCO)c1 [LM22A-4, N,N′,N″Tris(2-hydroxyethyl)-1,3,5-benzenetricarboxamide]",,,no effect,well tolerated,2.9,4.1,unaffected,not significantly different,not significantly different,not significantly different,no significant differences,eliminate,acutely reverse,completely reversed,reversed,no significant effect,significantly higher
B1,,,,,,,,,,,,eliminate,acutely reverse,,,,
